Measurements published in article PMC9862026, “In Vivo Toxicity, Redox-Modulating Capacity and Intestinal Permeability of Novel Aroylhydrazone Derivatives as Anti-Tuberculosis Agents” (Pharmaceutics, 2022).

Legend:
male Jcl:ICR mice [1] = experiment: Sub-acute toxicity, 14 days oral: complete blood count; assay type: in vivo; conditions: 50 mg/kg oral
Experimental: (§1) The sub-acute toxicity effects were assessed after repeated (14 days) oral administration to male mice. […] The experiments were performed with male Jcl: ICR mice at the same age of 6 weeks and weighing approximately 30–35 g, in which the substances were administered daily for 14 days orally with a gastric tube at approximately the same time of the day. The compounds were solubilized with Tween 80 (0.1%) in distilled water and administered orally in a volume of 0.1 mL per 10.0 g. Animals were observed daily for behavioral changes and signs of toxicity. All results were compared with the positive control isoniazid (INH).
(§2) Serum biochemical parameters were assessed as follows.

male Jcl:ICR mice [2] = experiment: Sub-acute toxicity, 14 days oral: serum biochemical parameters; assay type: in vivo; conditions: 50 mg/kg oral
Experimental: as §1, §2

liver of mice = experiment: Pathomorphological evaluation of liver; assay type: in vivo; conditions: 50 mg/kg oral, 14 days
Experimental: (§3) Tissues from the liver, kidney and small intestine of the mice from all groups were collected post-mortem and fixed in 10% buffered formalin for 48 h. fixed tissues were processed according to the classical paraffin method. The cutting of the paraffin blocks was performed using a paraffin rotary microtome Leica RM 2255 at a slice thickness of 5 µm. The sections were stained with hematoxylin and eosin (H&E). Histological changes were examined and imaged with a Leica DM2500 light microscope equipped with a Leica MC120HD digital camera and also with Euromex BioBlue (Belgium) digital camera

kidney of mice = experiment: Pathomorphological evaluation of kidney; assay type: in vivo; conditions: 50 mg/kg oral, 14 days
Experimental: as §3

small intestine of mice = experiment: Pathomorphological evaluation of small intestine; assay type: in vivo; conditions: 50 mg/kg oral, 14 days
Experimental: as §3

[3] = tested on: GSH in the liver homogenate; experiment: Total glutathione in liver homogenate; assay type: in vivo, mice; conditions: 50 mg/kg oral, 14 days
Experimental: as §2
According to Rahman et al. total glutathione (tGSH) concentration was determined. In the reaction between GSH and 5,5′-dithiobis-2-nitrobenzoic acid (DTNB), the rate of formation of colored substance, 5′-thio-2-nitrobenzoic acid (TNB), is proportional to the concentration of tGSH in the sample. The maximal absorption of colored TNB is at 412 nm. The concentration of tGSH was calculated using oxidized glutathione as a reference standard and was expressed as ng/mg protein.

[4] = tested on: SOD in the liver supernatant; experiment: SOD activity in liver supernatant; assay type: in vivo, mice; conditions: 50 mg/kg oral, 14 days
Experimental: as §2
SOD activity was measured by the method of Beauchamp and Fridovich. Superoxide anion radicals generated photochemically for 7 min, reduced nitro blue tetrazolium (NBT) obtaining insoluble formazan in violet color. The reduction of NBT inhibition in the presence of different enzyme concentrations was read at 560 nm vs. control of reaction mixture. The amount of enzyme performing 50% inhibition of NBT reduction is accepted as a unit of activity (U/mg protein).

[5] = tested on: Glutathione peroxidase in the liver supernatant; experiment: Glutathione peroxidase activity in liver supernatant; assay type: in vivo, mice; conditions: 50 mg/kg oral, 14 days
Experimental: as §2
The Glutathione Peroxidase Cellular Activity Assay Kit (Cat. No. CGP1) and Glutathione Reductase Assay Kit (Cat. No. GRSA) were used to measure the activities of glutathione-related enzymes.

[6] = GIT PAMPA intestinal permeability (Double-Sink protocol); assay type: in vitro ADME
Experimental: The intestinal permeability of isoniazid and the newly synthesized derivatives was measured by PAMPA Permeability Analyzer (pION Inc., Billerica, MA, USA) following the Double-Sink™ Protocol. PAMPA assay kits were purchased from pION Inc. According to the protocol, the donor compartment of the “sandwich” is loaded with compound solutions adjusted to three different pH values of 5.0, 6.2, and 7.4. The acceptor wells are filled with an ASB of fixed pH 7.4, containing chemical scavengers that simulate the effect of serum proteins. In the central circulation, pH 7.4 is constantly maintained, and the blood flow, as well as the serum proteins, support the one-directional process of absorption. Reference spectra (ketoprofen, antipyrine, and ranitidine) were used to assess the transfer of compounds from the donor to the acceptor phase. The permeation ability was estimated based on permeability coefficient values Pe (10^−6 cm/s), presented in logarithmic terms (−logPe). Values of −logPe < 5 were accepted as indicative of highly permeable compounds. When −logPe acquired values between 5 and 6, compounds were considered as medium permeable, and if −logPe > 6–as low permeable. Experiments were performed in triplicate and permeation coefficients Pe (−logPe values, respectively) are calculated using PAMPA Explorer Command Software (Version 3.8).

[7] = tested on: MDA in the liver homogenate; experiment: Endogenous MDA (spontaneous lipid peroxidation) in liver homogenate; conditions: 50 mg/kg oral, 14 days; vs controls
Experimental: On day 14, the animals were anesthetized with ketamine/ xylazine and decapitated. […] Livers were taken to assess oxidative stress and antioxidant status in the study groups.
For the in vivo experiments (spontaneous lipid peroxidation) the postnuclear homogenates of the liver (mg protein/mL) in 0.15 M KCl—10 mM potassium phosphate buffer, pH 7.2, were heated for 15 min at 100 °C in the presence of 40% TCA + 5N HCl + 2% thiobarbituric acid (2:1:2 v/v) for color developing. After cooling and centrifugation, the absorbance was read at 532 nm against dd H2O as blank. The values were expressed in nmoles malondialdehyde (MDA) per mg protein, with a molar extinction coefficient of 1.56 × 10^−5 M^−1cm^−1.

[8] = tested on: Fe^2+-asc.—induced lipid peroxidation in brain homogenate; experiment: Fe-induced lipid peroxidation inhibition assay in vitro (TBARS); assay type: biochemical; conditions: model system of brain homogenate, 10 mM FeCl3 and 10 mM ascorbic acid
Experimental: Malondialdehyde as a marker of lipid peroxidation was determined by the formation of endogenous lipid peroxidation products, reacting with 2-thiobarbituric acid (TBARS), and detected spectrophotometrically (λmax = 532 nm) adapted by Mileva et al.. The method is based on the reaction of thiobarbituric acid (TBA) with the final products of lipids oxidation and formation of malondialdehyde (MDA). […] After that to the samples was added 0.6 mL a mixture of trichloroacetic acid (TCA)—TCA:HCl:TBA in 2:1:2 ratio and boiled in a water bath. After cooling and centrifugation at 3000 nrp the obtained color complex was read spectrophotometrically at A532 nm against the appropriate blank. The results were expressed in percentage inhibition of lipid peroxidation (received MDA per mg protein content from the control).
(§4) All data are presented as IC50, which gave 50% inhibition of the activities and compared against the activity of Trolox—a common antioxidant, at the same concentrations.

DPPH assay = conditions: 0.1 mM DPPH in methanol, 30 min
Experimental: DPPH (2,2′-diphenyl-1-picrylhydrazyl radical) assay analysis of pure compounds was conducted by the method described by Brand-Williams et al.. First, 500 μL of the test solutions were added to 500 μL of a freshly prepared solution of 0.1 mM DPPH in methanol and incubated in the dark for 30 min. Then the absorbance at 517 nm (A517) was measured against a mixture of DPPH solution and methanol (1:1) as a control.
as §4

ABTS•+ assay = conditions: 15 min at 37 °C
Experimental: ABTS (2,2′-azino-bis (3-ethylbenzthiazoline-6-sulphonic acid) (7.0 mM) was mixed with potassium persulfate (2.45 mM) to obtain the cationic radical (ABTS•+) The solution was diluted in methanol (2 mL ABTS•+ + 58 mL methanol). The absorption at 743 nm of the resulting working solution was 1.1 ± 0.02 AU. Then, 1.425 mL of ABTS•+ working solution was added to 75 μL of the test drugs, and the absorption at 743 nm was measured after 15 min of incubation at 37 °C against methanol. A blank containing 75 μL of water instead of the test extract also was measured against methanol.
as §4

In the case of `NNC(=O)c1ccncc1` [INH, isoniazid, reference compound], the HCT (male Jcl:ICR mice [1]) is reported as 33.3 ± 2.1 %, the Hgb (male Jcl:ICR mice [1]) is reported as 112 ± 2.2 g/L and the PLT (male Jcl:ICR mice [1]) is reported as 789 ± 183 10^9/L. For the same compound, the RBC (male Jcl:ICR mice [1]) was 5.35 ± 0.2 × 10^12/L, the WBC (male Jcl:ICR mice [1]) was 9.9 ± 0.54 × 10^9/L and the “increase of leukocytes compared to controls” value (male Jcl:ICR mice [1]) was 70%. The “reduction in hematocrit compared to the control group” value (male Jcl:ICR mice [1]) was 20%, the “reduction in the level of erythrocytes compared to the control group” value (male Jcl:ICR mice [1]) was 28% and the “reduction in the level of hemoglobin compared to the control group” value (male Jcl:ICR mice [1]) was 21%. For the same compound, the “decrease of albumin compared to controls” value (male Jcl:ICR mice [2]) was 23%, the “decrease of total protein compared to controls” value (male Jcl:ICR mice [2]) was 26% and the “direct bilirubin higher than controls” value (male Jcl:ICR mice [2]) was 48%. The “increase of ALAT compared to control animals” value (male Jcl:ICR mice [2]) was 67%, the “increase of ASAT compared to control animals” value (male Jcl:ICR mice [2]) was 52% and the “increase of creatinine compared to controls” value (male Jcl:ICR mice [2]) was 29%. For the same compound, the “increase of urea compared to controls” value (male Jcl:ICR mice [2]) was 49%, the “total bilirubin higher than controls” value (male Jcl:ICR mice [2]) was 40% and the ALAT (male Jcl:ICR mice [2]; serum) was 96.6 ± 3.1 U/L. For the same compound, the ALB (male Jcl:ICR mice [2]; serum) was 21.6 ± 1.7 g/L, the ASAT (male Jcl:ICR mice [2]; serum) was 126 ± 5.2 U/L and the CREAT (male Jcl:ICR mice [2]; serum) was 126.6 ± 8.2 µmol/L. The D-Bil (male Jcl:ICR mice [2]; serum) was 6.5 ± 0.44 µmol/L, the GLU (male Jcl:ICR mice [2]; serum) was 6.4 ± 0.47 mmol/L and the T-Bil (male Jcl:ICR mice [2]; serum) was 12.0 ± 0.38 µmol/L. The TP (male Jcl:ICR mice [2]; serum) was 43.2 ± 3.1 g/L, the UA (male Jcl:ICR mice [2]; serum) was 196 ± 20.7 µmol/L and the UREA (male Jcl:ICR mice [2]; serum) was 13.6 ± 0.36 mmol/L. For the same compound, the “Lobular inflammatory process and hepatocyte loss” value (liver of mice) was “not reported”, the “signs related to initiated fibroblastic process (organ collagenization and fibrosis)” value (liver of mice) was “No signs” and the “Pathomorphological findings in the kidney” value (kidney of mice) was “the curved parts of the distal tubules have a lower upholstered epithelium, wide luminal segments, and preserved histological structure”. For the same compound, the “Pathomorphological findings in the small intestine” value (small intestine of mice) was “there were no defects in the epithelium, reaching and exceeding the muscular layer of the epithelium”, the villous dullness score (small intestine of mice) was 1 and the “level of total GSH in liver homogenate” value [3] was “decreased the level of total GSH”. For the same compound, the glutathione deficiency ([3]; vs control levels) was “about 30%”, the “increase of the activity of SOD in liver” value [4] was 25% and the “increase of the activity of GPx compared to controls” value [5] was 35%. For the same compound, the “−logPe, GIT PAMPA” value ([6]; at the given experimental conditions (all tested pH), impermeable) was over 6, the “−logPe, GIT PAMPA” value ([6]; donor pH = 5.0, acceptor pH 7.4, Pe in 10^−6 cm/s) was 6.226 and the “−logPe, GIT PAMPA” value ([6]; donor pH = 6.2, acceptor pH 7.4, Pe in 10^−6 cm/s) was 6.591. The “−logPe, GIT PAMPA” value ([6]; donor pH = 7.4, acceptor pH 7.4, Pe in 10^−6 cm/s) was 6.594 and the “increase of the level of MDA in liver homogenate” value [7] was “more than 35%”.

For `Cc1c(C)c2c(c(C)c1O)CCC(C)(C(=O)O)O2` (centres unmarked) [Trolox, 6-hydroxy-2,5,7,8-tetramethylchroman-2-carboxylic acid, reference compound], the “Fe^2+-asc.—Induced LP in Liver, IC50” value [8] was 18.2 mg/mL, the “DPPH Scavenging, IC50” value (DPPH assay) was 8.92 mg/mL and the “ABTS Scavenging, IC50” value (ABTS•+ assay) was 24.8 mg/mL.
